# In patent publication US6884600B1, “Protein phosphatase-1 catalytic subunit interactions” (Medical Research Council London, priority 1996, dated 2005):
# Entries after “also recorded” stand apart in the source; their conditions may differ.
# What was measured:
# [1] = target: T1, PP1M (Gallus gallus, UniProt P62207); assay: MLC20 phosphatase activity of PP1M; format: biochemical, chicken
# T1 construct: from tissue; host or cells: chicken gizzard smooth muscle
# Procedure: (§1) (A) The phosphorylase phosphatase (PhP) activity of PP1M (closed circles) and its MLC20 phosphatase (MLCP) activity (open circles) were assayed after preincubation for 15 minutes at 30° C. with the indicated concentrations of GM-(G63-T93). Activities are shown relative to control incubations in which GM-(G63-T93) was omitted. Similar results were obtained in three experiments.
# (§2) (A) PP1M from chicken gizzard smooth muscle (Alessi et al., 1992) was diluted and incubated for 15 min at 30° C. with the peptide […] (SEQ ID No 4), corresponding to the sequence in p53BP2 that contains the RVXF motif. Reactions were started with either ^32P-labelled MLC20 or glycogen phosphorylase and the MLC20 phosphatase (open circles) and phosphorylase phosphatase (PhP, closed circles) activities were determined. The results are expressed as a percentage of the activity determined in control incubations where the p53BP2 peptide was omitted (100%). Similar results were obtained in three separate experiments. (B) same as (A) except that the peptide was incubated with diluted hepatic glycogen particles containing PP1-GL before measuring the PhP activity. Similar results were obtained in three separate experiments.
# (§3) The myosin-associated form of PP1 (PP1M) was from chicken gizzard and the glycogen-associated form of PP1 (PP1G) from rabbit skeletal muscle. […]
# [2] = test system: cultured cells; assay: Effect of p53BP2 peptide introduced into cultured cells (cell cycle, apoptosis; WAF1 ELISA, Nuclear Matrix Protein ELISA); format: cell-based; settings: Example 5, present tense, no data
# Source text: The function of p53BP2 is ascertained by examining the in vivo effect of peptides based on the sequence of the p53BP2 binding site to PP1. This may be done by reference to the consensus peptide sequence described in the previous Examples and by reference to the crystal structure in Example 2. The peptide is introduced into cultured cells using penetratin available from Appligene. Other importins may also be used. Alternatively cDNA specifying p53BP2 proteins mutant in the p53BP2 binding site to PP1 are transfected in cultured cells. The effect of these agents on the cell cycle and apoptosis are assessed by a number of methods, for example WAF1 ELISA and Nuclear Matrix Protein ELISA assays (Amersham).
# [3] = test system: PP1GL; assay: Phosphorylase phosphatase activity of PP1GL (hepatic glycogen particles); format: biochemical, rat
# Procedure: Hepatic glycogen particles were diluted in assay buffer to 0.6 phosphorylase phosphatase (PhP) mU per ml, incubated for 15 minutes at 30° C. with GM-(G63-T93) (closed circles), GM-(G63-K80) (open circles) or GM-(G63-N75) (closed triangles) and assayed as described in Example 1. The open triangles show the effect of GM-(G63-N75) which had been phosphorylated at Ser67 by PKA (pGM-(G63-N75)). Similar results were obtained in four experiments.
# (A) Hepatic glycogen protein particles containing PP1-GL were diluted and incubated for 15 min at 30° C. with the indicated concentrations of either M110[M1-F38] (open circles) or M110[M1-K35] (closed circles) and the phosphatase reactions were initiated by addition of ^32P-labelled glycogen phosphorylase. The results are expressed as a percentage of the activity determined in control incubations where the M110 peptides were omitted. Similar results were obtained in three separate experiments. (B) The experiment was carried out as in (A), except that the peptide GM[G63-N75] (“wild type”, WT) and variants in which either Val 66 (V66A) (closed triangles) or Phe 68 (F68A) (closed circles) were changed to Ala, were used instead of the M110 peptides. Similar results were obtained in three separate experiments.
# (§4) The myosin-associated form of PP1 (PP1M) was from chicken gizzard and the glycogen-associated form of PP1 (PP1G) from rabbit skeletal muscle. The β isoform of PP1c was released from PP1G by incubation for 2 hours in 2M LiBr, then purified by gel-filtration on a 30×1 cm column of Superose 12 (Pharmacia, Milton Keynes, U.K.) in the presence of 0.5M LiBr. Glycogen protein particles from rat liver were used as the source of hepatic PP1G Digoxygenin-labelled PP1c (γ1-isoform, hereafter termed PP1) was prepared as in [9]. GL was expressed in E. coli as a glutathione-S-transferase (GST) fusion protein [7], termed GST-GL. The catalytic subunit of PP2A from bovine heart (PP2AC) was provided by Dr R. MacKintosh in this Unit. The phosphorylatable myosin light chain (MLC20) and heavy meromyosin from chicken gizzard were a gift from Dr M. Ikebe (Case Western Reserve University, Cleveland, USA). Thrombin and benzamidine-Agarose were purchased from Sigma (Poole, UK).
# (§5) ^32P-labelled rabbit skeletal muscle phosphorylase a (containing 1.0 mol phosphate per mol subunit) was prepared by phosphorylation with phosphorylase kinase, ^32P-labelled rabbit skeletal muscle glycogen synthase (containing 1.5 mol/mol subunit in the sites 3 region) was prepared by phosphorylation with glycogen synthase kinase-3 [24]). ^32P-labelled chicken gizzard MLC20 and ^32P-labelled chicken gizzard heavy meromyosin (containing 1.0 mol phosphate per mol subunit) were prepared by phosphorylation with smooth muscle myosin light chain kinase. The dephosphorylation of phosphorylase a (10 μM), glycogen synthase (1 μM) and MLC20 (1 μM) and heavy meromyosin (1 μM) was carried out as in [24]. One unit of activity (U) was that amount which released […] of phosphate in one minute.
# (§6) PP1c was isolated from the rabbit skeletal muscle PP1-GM complex as described previously (Johnson et al, 1996). Glycogen particles isolated from rat liver (Schelling el al, 1988) served as the source of PP1-GL. The dephosphorylation of glycogen phosphorylase (10 μM) and the isolated MLC20 of smooth muscle myosin (1 μM) by PP1c was carried out as described previously (Cohen et al., 1988; Alessi et al., 1992).
# [4] = target: T1, PP1M; assay: Phosphorylase phosphatase activity of PP1M; format: biochemical, chicken
# Procedure: as §1, §2, §3
# [5] = test system: PP1GL; assay: Glycogen synthase phosphatase activity of PP1GL; format: biochemical, rat
# Procedure: as §4, with “UK). […]” for “UK).”
# [6] = target: T2, PP1c (Oryctolagus cuniculus, UniProt P62143); assay: Phosphorylase phosphatase activity of PP1c; format: biochemical, rabbit
# T2 construct: from tissue; host or cells: rabbit skeletal muscle (PP1G dissociated with LiBr)
# Procedure: (§7) A,B; Effects of M110-(M1-E309) (closed circles), M110-(M1-F38) (open circles) and M110-(D39-E309) (open triangles) on the MLC20 phosphatase […] and phosphorylase phosphatase (B) activities of PP1c were measured after incubating PP1c for 15 minutes at 30° C. with each fragment. The results are presented as a percentage of those obtained in experiments where the M110 fragments were omitted.
# (§8) C,D; The effect of M110-(M1-A150) (open circles) and M110-(L24-Y496) (closed circles) on the MLC20 phosphatase (C) and phosphorylase phosphatase (D) activities of PP1c were measured as in A,B.
# (B) The phosphorylase phosphatase activity of PP1c was assayed as in A in the presence or absence of 1 μM GM-(G63-T93) and 1.0 nM M110-(M1-E309). The results are presented (SEM for three experiments) as a percentage of the PP1c activity measured in the absence of GM-(63-T93), M110-(M1-F38) or M110-(M1-E309).
# as §4, §5, §6
# [7] = target: T1, PP1M; assay: Gel filtration of PP1M on Superose 12 with or without GM-(G63-T93); format: binding, chicken
# Procedure: (B,C) PPIM was incubated for 15 minutes at 30° C. in the absence (B) and presence (C) of […] GM-(G63-T93), then passed through a 30×1 cm column of Superose 12 equilibrated at ambient temperature in 50 mM Tris/HCl pH 7.5, 0.2M NaCl, 0.1 mM EGTA, 0.1% (by vol) 2-mercaptoethanol, 0.03% (by mass) Brij 35 in the absence (B) or presence (C) of 1 μM GM-(G63-T93). Fractions (0.25 ml) were assayed for MLC20 phosphatase (MLCP) in B and for phosphorylase phosphatase (PhP) activity in C. The arrows denote the position of ferritin (450 kDa) and ovalbumin (43 kDa).
# [8] = target: T2, PP1c; assay: MLC20 (myosin P-light chain) phosphatase activity of PP1c; format: biochemical
# Procedure: as §7, §8
# (A) The MLC20 phosphatase activity of PP1c was assayed after incubation for 15 minutes at 30° C. in the presence or absence of 1 μM GM-(G63-T93) and either 0.1 μM M110-(M1-F38) or 0.1 nM M110-(M1-E309).
# (1-38, open circles) or M110[M1-K35] (1-35, closed circles) were incubated with PP1c for 15 min at 30° C. and reactions started with the ^32P-labelled MLC20 substrate. The results are expressed as a % of the activity determined in control incubations where the M110 peptides were omitted (100%). Similar results were obtained in three separate experiments.
# as §4, §5, §6
# ^32P-labelled myosin P-light chains containing 1.0 mol phosphate per mol subunit was prepared by phosphorylation with smooth muscle myosin light chain kinase. The dephosphorylation of myosin P-light chain (1 μM) was carried out as in [4] and one unit of activity (U) was that amount which catalysed the release of 1 μmole of phosphate in one min. When assaying PP1M in immunoprecipitates from the myofibrillar extracts, the tubes were shaken continuously and 3 nM okadaic acid was included to inhibit any PP2A present.
# T1 sequence (P62207 whole entry): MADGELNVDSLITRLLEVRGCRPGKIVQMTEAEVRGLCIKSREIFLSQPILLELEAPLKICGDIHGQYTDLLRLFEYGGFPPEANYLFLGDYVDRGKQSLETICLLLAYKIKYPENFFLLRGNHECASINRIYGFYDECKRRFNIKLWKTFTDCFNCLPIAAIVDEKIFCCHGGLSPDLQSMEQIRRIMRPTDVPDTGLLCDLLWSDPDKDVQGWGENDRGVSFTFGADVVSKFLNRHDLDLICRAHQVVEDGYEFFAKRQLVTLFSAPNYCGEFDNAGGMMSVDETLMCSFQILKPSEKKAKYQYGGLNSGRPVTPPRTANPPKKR
# T2 sequence (P62143 whole entry): as the sequence (P62207 whole entry) above
Sequence,effect on the MLC20 phosphatase activity of PP1M [1],effect of the peptide in cultured cells [2],effect on the phosphorylase phosphatase activity of PP1GL ([3]; hepatic glycogen particles containing PP1-GL),effect on the phosphorylase phosphatase activity of PP1M [4],effect on the glycogen synthase phosphatase activity of PP1GL [5],prevention of suppression of the phosphorylase phosphatase activity of PP1c by a regulatory subunit or fragment [6],maximal stimulation of the phosphorylase phosphatase activity of PP1c ([6]; SEM for three experiments),dissociation of PP1M in gel-filtration experiments [7],suppression of the MLC20 phosphatase activity of PP1M ([1]; 10 μM peptide),displacement of GL from PP1c [3],"increase in the phosphorylase phosphatase activity of PP1GL ([3]; hepatic glycogen particles, 15 min 30° C.)","EC50 ([3]; hepatic glycogen particles, 15 min 30° C., read-out: concentration required for 50% activation of the phosphorylase phosphatase activity of PP1GL)",prevention of stimulation of the MLC20 phosphatase activity of PP1c by M110 fragments [8],increase in the phosphorylase phosphatase activity of PP1M ([4]; 10 μM peptide)
GKRTNLRKTGSERIAHGMRVKFNPLALLLDSC [32 residue peptide from p53BP2],decrease in the rate of dephosphorylation of the MLC20 subunit of smooth muscle myosin,modulate the interaction between PP1 and p53BP2 in vivo and affect cell regulation and apoptosis,increase in the rate of dephosphorylation of glycogen phosphorylase,increase in the rate of dephosphorylation of glycogen phosphorylase,,,,,,,,,,
"GRRVSFADNFGFNLVSVKEFDTWELPSVSTT [GM-(G63-T93), synthetic peptide, residues 63-93 of rabbit GM]",,,,,no effect,prevented bacterially expressed GST-GL from suppressing the phosphorylase phosphatase activity of PP1c; also recorded: prevented M110-(M1-E309) from suppressing the phosphorylase phosphatase activity of PP1c,37+1.4%,displaced the M110 subunit from PP1M,60-65%,does not displace GL from PP1c,sixfold,30 nM,prevented M110-(M1-F38) or M110-(M1-E309) from stimulating the MLC20 phosphatase activity of PP1c,about 7 fold
